Our source for the IC50 values is PubChem BioAssay AID493002 (Sanford-Burnham Center for Chemical Genomics, 2010).

Each structure is given as a SMILES string.

The test system of the experiment is S. cerevisiae tim23-1 mutant growth, luminescence. As to the kind of experiment: potency against tim23-1 yeast growth – luminescence, uHTS hits, dose response (AID 493002).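 Also: yeast grown roughly 22 hours at 25 °C before the luminescence read.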
Turning to `O=C(c1cc(-c2ccc(O)cc2)on1)N1CCCc2ccccc21`, the IC50 was 12.9 µM.
For the compound `COC(=O)c1c(-c2ccc(S(C)(=O)=O)cc2)sc2ccc(OC)cc12`, the IC50 is 12 µM.
The figure for `Brc1ccc(-n2cnc(-c3ccccc3)c2)cc1` is 12.5 µM; for `CCN(CC)S(=O)(=O)c1ccc(C(=O)OCn2nnc3ccccc3c2=O)cc1` it is 9.32 µM.
Regarding `CCCc1nc2c(c(=O)c3ccccc3n2C)c(=O)n1C1CCCCCC1`, the IC50 was 9.44 µM.
For the compound `Oc1c(Cl)cc(Cl)cc1CNc1nccs1`, the IC50 is 15.3 µM.
In the case of `COc1ccc(-c2cc(-c3ccccc3O)[nH]n2)cc1`, the IC50 was 9.38 µM.
The figure for `O=C(CC(=O)c1c(F)cccc1Cl)c1ccccc1O` is 15.7 µM; for `N#C/C(=C\c1ccc(Cl)cc1)C(=O)Nc1cccnc1` it is 5.72 µM; for `N#C/C(=C/c1ccc(N2CCOCC2)o1)c1nc2ccccc2[nH]1` it is 7.2 µM.
In the case of `COc1ccccc1C(=O)Nc1nnc(-c2ccc3c(c2)CCCC3)o1` it was 13.8 µM.
The figure for `Cn1cc(C(=O)c2ccc(Cl)cc2)cc1-c1nc2ccccc2n1C` is 12.3 µM; for `COc1cc2c(cc1OC)/C(=C/c1ccc(Cl)cc1)C(=O)OC2` it is 8.86 µM; for `N#C/C(=C\c1c[nH]c2ccccc12)C(=O)NC1CCCC1` it is 31.5 µM.
For the compound `CC1(C)CC(=O)C=C(c2ccc(I)cc2)C1`, the IC50 was 14.8 µM.
The figure for `Brc1ccc(OCc2nnnn2-c2ccccc2)cc1` is 11.3 µM; for `O=C(Nc1ccc(-c2cn3ccccc3n2)cc1)c1cccs1` it is 2.92 µM.
The figure for `CC(C)Cn1cnc2c(c(-c3ccccc3)c(-c3ccccc3)n2Cc2ccco2)c1=N` is 9.48 µM; for `OCCOCCNc1ncnc2c1c(-c1ccccc1)cn2-c1ccccc1` it is 10.7 µM.
In the case of `NC(=S)N/N=C/c1coc2ccc(Br)cc2c1=O` it was 4.4 µM; in that of `CCOC(=O)NNc1ccc2nonc2c1[N+](=O)[O-]`, 6.6 µM.
Turning to `O=C(/C=C\Nc1cccc(F)c1)c1cccs1`, the IC50 is 7.31 µM.
The figure for `COc1ccc(OC)c(-c2csc(NC(=O)Cc3ccc(F)cc3)n2)c1` is 9.63 µM.
The figure for `Cc1csc2nc(O)c(C(=O)NC3CCCCC3)c(=O)n12` is 8.51 µM.
The figure for `O=C(NC(=O)c1ccccc1F)OCc1ccc(Cl)cc1Cl` is 11.9 µM; for `Brc1cccc(-c2n[nH]c(-c3ccccc3)n2)c1` it is 11.5 µM; for `O=C(N/N=C/C(Br)=C/c1ccccc1)c1cccs1` it is 6.9 µM.
For `Oc1ccc(-c2csc(Nc3ccccn3)n2)c(O)c1`, the IC50 was 24.9 µM.
For `O=C(CSc1cccc[n+]1[O-])CSc1cccc[n+]1[O-]`, the IC50 is 5.83 µM.
In the case of `Oc1ccc(Cl)cc1CNc1cnc2ccccc2c1` it was 15.3 µM; in that of `Cc1ccccc1OCCCSc1nc2ccccc2[nH]1`, 9.44 µM.
In the case of `COc1cccc(NC(=O)c2ccccc2)c1`, the IC50 was 11.3 µM.
In the case of `Cc1ccc(OCc2cc(C(=O)NCc3cnn(-c4cccc(F)c4)c3)no2)cn1` it was 14.8 µM; in that of `O=C(Oc1ccc(=O)n(-c2ccccc2)n1)c1ccc(Cl)cc1`, 11.8 µM.
As for `COn1c(=O)c(-c2cccs2)[n+]([O-])c2ccccc21`, the IC50 is 3.96 µM.
In the case of `N=C1/C(=C\c2coc3ccccc3c2=O)C(=O)N=C2SC=CN12` it was 8.9 µM; in that of `Cc1csc2nc(O)c(C(=O)NC3CCCCC3C)c(=O)n12` (stereo unspecified), 12.2 µM; in that of `Cc1nc2ccc(C(C(F)(F)F)(C(F)(F)F)C(F)(F)F)cc2[nH]1`, 5.02 µM.
Consider `CCC1CCc2sc(C(=O)N(C)CC(=O)Nc3ccc(OC)cc3)cc2C1` (stereo unspecified), for which the IC50 is 19.5 µM.
`N#C/C(C(N)=O)=c1/ccc2c(c1)N1C3=C(CCCC3)CC3CCCCC31N=2` (stereo unspecified): the IC50 was 7.43 µM.
The figure for `O=C(Nc1ccc(F)c(Cl)c1)c1ccccc1` is 11.5 µM.
The figure for `Cc1ccc(CS(=O)(=O)c2ncc(Cl)c(C(=O)Nc3ccc(OC(F)F)cc3)n2)cc1` is 1.86 µM; for `C#CCOCCOCCOCCNc1nc(N2CCN(C(=O)CCCCCCCCCCNC(=O)[C@H](CCCCN)n3cc(CCO)nn3)CC2)nc(N2CCN(C(=O)CCCCCCCCCCNC(=O)[C@H](CCCCN)n3cc(C[C@@H](C)CC)nn3)CC2)n1` it is 17.1 µM; for `CNC(=S)N/N=C/c1cc(Br)cc(Br)c1O` it is 3.14 µM.
In the case of `O=C(Nc1cc(-c2ccccc2)[nH]n1)c1ccccc1` it was 4.2 µM; in that of `O=C(c1ccccc1)N1N=C(c2cccs2)CC1c1ccccc1O` (stereo unspecified), 22.8 µM; in that of `Cc1cccc(N=Nc2cnc(N)s2)c1`, 15.1 µM.
In the case of `c1cnc2c(c1)ccc1cccnc12`, the IC50 was 9.59 µM.
In the case of `NS(=O)(=O)c1ccc(N=Cc2c(O)n(C3CCCCC3)c(=O)n(C3CCCCC3)c2=O)cc1` it was 14.4 µM.
In the case of `Cc1ccc2nc(-c3ccc(N)cc3)sc2c1` it was 9.95 µM.
In the case of `O=c1c2ccccc2nc2c3ccccc3cnn12`, the IC50 is 15 µM.
With `COc1ccc2c(c1)-c1nc(NC(=O)c3cccs3)sc1CC2`, the IC50 is 21.7 µM.
Regarding `CCOC(=O)Nc1cccc(NC(=O)c2ccccc2F)c1`, the IC50 was 13.3 µM.
In the case of `Cn1c(/C(C#N)=C/c2ccncc2)nc2ccccc21` it was 16.3 µM; in that of `Cc1ccc(-c2nn(-c3ccccc3)cc2NC(=O)CCl)cc1`, 4.31 µM; in that of `O=C(c1cccnc1)C1Cc2ccccc2C1=O` (stereo unspecified), 9.94 µM.
The figure for `O=C(Nc1nc2ccccc2s1)C1CCCN1S(=O)(=O)c1ccc(Cl)cc1` (stereo unspecified) is 8.08 µM.
The figure for `O=C1Nc2ccccc2/C1=C/c1ccccc1Cl` is 7.21 µM; for `Cc1oc2cc(O)cc(O)c2c(=O)c1-c1ccc2c(c1)OCCCO2` it is 8.84 µM; for `Cc1cccn2c(=O)c(C(=O)NC3CCCCC3)c(O)nc12` it is 15.6 µM.
For `Cc1ccc(NC(=O)c2ccc3c(c2)OCCO3)cc1C`, the 50% inhibitory concentration (IC50) is 13 µM.
In the case of `Cc1cc2cc(CNC(=O)c3ccc(C)c([N+](=O)[O-])c3)ccc2[nH]1` it was 9.14 µM; in that of `CC1=C(C)/C(=N/OC(=O)c2cccc([N+](=O)[O-])c2)C=CC1=O`, 8.03 µM.
The figure for `O=C(NC1CCCCC1)c1c(O)nc2sccn2c1=O` is 16.4 µM; for `O=C(/C=C/c1ccccc1Cl)Nc1ccccc1` it is 12.2 µM.
The figure for `C=CCN=c1scc(-c2ccco2)n1/N=C/c1ccc(O)c(O)c1O` is 16.1 µM.
For the compound `CCOC(=O)c1c(C)oc2c(F)c(F)c(F)c(F)c2c1=O`, the IC50 was 13.1 µM.
With `Cc1ccc2c(c1)C(=O)N1[C@H]3c4ccccc4OC[C@@H]3[C@H](c3ccccc3)[C@]1(C)C(=O)N2`, the IC50 was 4.99 µM.
The figure for `Cc1ccc(NCc2nc3ccccc3n2CCOc2ccccc2)cc1` is 10.4 µM.
With `CC(C)(C)N1C(=O)c2ccc(C(=O)Nc3nccs3)cc2C1=O`, the IC50 was 20.3 µM.
In the case of `CC(C)N=c1scc(-c2ccco2)n1/N=C/c1ccc(O)c(O)c1` it was 11.9 µM.
Regarding `Oc1ccc(Oc2ccc(Oc3ccc(O)cc3)cc2)cc1`, the IC50 is 6.42 µM.
In the case of `Cc1nc2ccccc2n1/N=C/c1ccc([N+](=O)[O-])s1` it was 1.58 µM; in that of `O=C(Nc1ccc2c(c1)OCCO2)c1cccc(Br)c1`, 14.5 µM; in that of `CC(C)Oc1cc(O)c2c(=O)c(-c3ccc(O)cc3)coc2c1`, 7.38 µM.
In the case of `O=C(Nc1nccs1)c1ccc(Cl)s1` it was 7.48 µM.
